Columns and labels:
CDK2/CyclinE1 = CDK2/CyclinE1 (Homo sapiens (Human), UniProt P24941); experiment: Kinase Selectivity Profiling General Panel (ADP-Glo); format: biochemical; details: 1 μM compound, read-out: Percent enzyme activity inhibition, CDK2/CyclinE1
Protocol: After this incubation, 5 μl of ADP-Glo™ reagent was added to 5 μl reaction and incubated for 40 minutes. Then, 10 μl of Kinase Detection Reagent added to all assay wells in the assay plate and incubated at room temperature for 30 minutes.

[1] = biological target: PKA-NanoLuc fusion protein (Homo sapiens (Human), UniProt P17612); experiment: PKA-NanoBRET Target Engagement Intracellular Kinase Assay in HEK293 cells; format: cell-based; details: live HEK293 cells, 2 hours; read-out: Estimated IC50, inhibition of NanoBRET tracer binding to PKA
Protocol: NanoBRET™ TE assay is based on the NanoBRET™ System, an energy transfer technique designed to measure molecular proximity in living cells. The NanoBRET™ TE assay measures the apparent affinity of test compounds by competitive displacement of the NanoBRET™ tracer, reversibly bound to a NanoLuc® luciferase-kinase fusions in cells. Using the NanoBRET™ TE Kinase Assay, a fixed concentration of tracer is added to cells expressing the desired NanoLuc® kinase fusion to generate a BRET signal. […] Centrifuged culture, resuspended cells in fresh culture media, and dispense 85 ul in to wells of 96-well plate. • 3. […] Added 10 μl of 10× serially diluted inhibitor compound per well containing cells with IX NanoBRET Tracer Reagent. Thoroughly mixed plate on an orbital shaker for 15 seconds at 700 rpm. • 5. […] Equilibrated plate to room temperature for ˜15 minutes. • 6. […] Measured donor emission wavelength (450 nm) and acceptor emission wavelength (610 nm) using the GloMax® Discover System (Promega). To generate raw BRET ratio values, divided the acceptor emission value (610 nm) by the donor emission value (450 nm) for each sample.

[2] = Stability in buffer, plasma, and blood (LC-MS/MS); format: in vitro ADME, human; design: half-life: dose or concentration left out as unconfirmed
Protocol: Stability in buffer, plasma, and blood. Study was conducted by Absorption Systems. Studies were carried out in pH 7.4 phosphate buffer, mixed-gender human plasma (Lot #HMN330460), and mixed-gender human whole blood (Lot #HMN 381096). […] The plasma and blood were obtained from BioIVT and collected on sodium heparin. They were adjusted to pH 7.4 prior to initiating the experiments. […] Aliquots of the DMSO solution were dosed into 1 mL of matrix, which had been pre-warmed to 37° C., at a final concentration of […]. The vials were kept in a benchtop Thermomixer® for the duration of the experiment. Aliquots (100 μL) were taken at each time point (0, 15, 30, 60, and 120 minutes) and added to 96-well plates, which had been pre-filled with 300 μL of acetonitrile (ACN). Samples were stored at 4° C. until the end of the experiment. After the final time point was sampled, the plate was mixed and then centrifuged at 3,000 rpm for 10 minutes. Aliquots of the supernatant were removed, diluted 1:1 into distilled water, and analyzed by LC-MS/MS (Table 21). The peak area response ratio to internal standard (PARR) was compared to the PARR at time 0 to determine the percent of test article remaining at each time point. Half-lives were calculated using GraphPad software, fitting to a single-phase exponential decay equation.

[3] = Stability in liver microsomes (LC-MS/MS); format: in vitro ADME; details: Human liver microsomes; for % Remaining of Initial (n = 1): 1 μM
Protocol: Stability in liver microsomes. Experiment was conducted by Absorption Systems. Mixed-gender human liver microsomes (Lot #1210347) were purchased from XenoTech. The reaction mixture, minus NADPH, was prepared (Liver Microsomes 0.5 mg/mL, NADPH (cofactor) 1 mM, potassium phosphate, pH 7.4, 100 mM, MgCl2, 5 mM). The test article was added into the reaction mixture at a final concentration of 1 μM. The control compound, testosterone, was run simultaneously with the test article in a separate reaction. The reaction mixture (without cofactor) was equilibrated in a shaking water bath at 37° C. for 3 minutes. The reaction was initiated by the addition of the cofactor, and the mixture was incubated in a shaking water bath at 37° C. Aliquots (100 μL) were withdrawn at 0, 10, 20, 30, and 60 minutes. Test article and testosterone samples were immediately combined with 400 μL of ice-cold 50/50 acetonitrile (ACN)/H2O containing 0.1% formic acid and internal standard to terminate the reaction. The samples were then mixed and centrifuged to precipitate proteins. […] The peak area response ratio (PARR) to internal standard was compared to the PARR at time 0 to determine the percent remaining at each time point. Half-lives and clearance were calculated using GraphPad software, fitting to a single-phase exponential decay equation.

primary hTM cells = experiment: CellTox Green cytotoxicity assay in hTM cells; format: cell-based; details: 24 h, 48 h, 72 h
Description: Commercially available RealTime-Glo™ MT cell viability (Promega, catalog #G9712) and CellTox™ Green cytotoxicity (Promega, catalog #G8731) assays were used in assessing effect of compounds on primary hTM cell viability and cytotoxicity. The RealTime-Glo™ MT cell viability assay is a nonlytic, homogeneous, bioluminescent method that determines the number of viable cells in culture by measuring the reducing potential of cells and thus metabolism (MT). Viable cells reduce the proprietary pro-substrate to generate a substrate for NanoLuc® luciferase. This substrate diffuses from cells into the surrounding culture medium, where it is rapidly used by the NanoLuc® Enzyme to produce a luminescent signal. In a contrasting and complementary manner, CellTox™ Green cytotoxicity assay measures changes in membrane integrity that occur as a result of cell death. This assay system uses a proprietary asymmetric cyanine dye that is excluded from viable cells but preferentially stains the dead cells' DNA. […]
Human™ cells were cultured and maintained as described in Example 12. […] Light emitted by luciferase and fluorescence emitted by dye binding to DNA (excitation 485 nm and emission 525 nm) were measured at 24 h, 48 h, and 72 h after incubation using plate based luminescence and fluorescence plate readers.

SMILES: Cl.Cl.NCC(C(=O)Nc1ccc2cnccc2c1)c1ccc(B(O)O)cc1 (stereo not shown) [Compound 10•2HCl]
- inhibition at 1 µM (CDK2/CyclinE1): 11%
- IC50 [1]: 1420 nM
- Percent Remaining ([2]; Buffer pH 7.4, 37° C., 0 min): 100%
- Percent Remaining ([2]; Buffer pH 7.4, 37° C., 15 min): 102%
- Percent Remaining ([2]; Buffer pH 7.4, 37° C., 30 min): 97%
- Percent Remaining ([2]; Buffer pH 7.4, 37° C., 60 min): 101%
- Percent Remaining ([2]; Buffer pH 7.4, 37° C., 120 min): 93%
- half-life ([2]; both sexes, pH 7.4, human Plasma, 37° C.): > 2 h
- half-life ([2]; both sexes, pH 7.4, human whole Blood, 37° C.): > 2 h
- Percent Remaining ([2]; human Plasma, 37° C., 0 min): 100%
- Percent Remaining ([2]; human Plasma, 37° C., 15 min): 82%
- Percent Remaining ([2]; human Plasma, 37° C., 30 min): 106%
- Percent Remaining ([2]; human Plasma, 37° C., 60 min): 83%
- Percent Remaining ([2]; human Plasma, 37° C., 120 min): 91%
- Percent Remaining ([2]; human whole Blood, 37° C., 0 min): 100%
- Percent Remaining ([2]; human whole Blood, 37° C., 15 min): 92%
- Percent Remaining ([2]; human whole Blood, 37° C., 30 min): 87%
- Percent Remaining ([2]; human whole Blood, 37° C., 60 min): 100%
- Percent Remaining ([2]; human whole Blood, 37° C., 120 min): 115%
- half-life ([2]; pH 7.4 phosphate buffer, Buffer pH 7.4, 37° C.): > 2 h
- % Remaining of Initial (n = 1) ([3]; 0 min): 100%
- % Remaining of Initial (n = 1) ([3]; 10 min): 98.0%
- % Remaining of Initial (n = 1) ([3]; 20 min): 91.5%
- % Remaining of Initial (n = 1) ([3]; 30 min): 89.6%
- % Remaining of Initial (n = 1) ([3]; 60 min): 80.8%
- half-life at 1 μM ([3]; both sexes, pH 7.4): > 1 h
- microsomal CLint at 1 μM ([3]; both sexes, pH 7.4): < 23.1 µL/min/mg
- Cytotoxicity / membrane integrity (in words) (primary hTM cells): no effect on viability or membrane integrity

Reference: patent US12479866B2, “Boron-containing rho kinase inhibitors” (Percipiad, Inc., priority 2019, dated 2025)
